Each block holds one molecule with its values, some of them ahead of it. The source made the active and inactive calls. The calls are words filed in the database; no cut-off is given here.
Columns and labels:
[1] = (§1) Antiproliferative activity against HSMC expressing Id-protein assessed as reduction in cell growth after 72 hrs by Coulter counting; format: functional, Homo sapiens; design: scale not given: the % may be the effect or the level left
[2] = test system: HSMC; assay: as §1; format: functional; conditions: Homo sapiens
[3] = Inhibition of PDGF-stimulated HSMC migration after 8 hrs by Boyden chamber assay; format: functional, Homo sapiens; design: scale not given: the % may be the effect or the level left
[4] = Perinuclear localization in HSMC after 6 hrs by fluorescence microscopy; format: ADME, cell-based; conditions: human
[5] = Drug uptake by HSMC assessed as mean fluorescence index after 72 hrs by FACS; format: ADME; conditions: human
[6] = target: T1, DNA-binding protein inhibitor ID-1 (Homo sapiens) (UniProt P41134); assay: Inhibition of ID1-protein in HSMC assessed as increase in alpha-actin mRNA level by real time PCR
T1 sequence (whole entry): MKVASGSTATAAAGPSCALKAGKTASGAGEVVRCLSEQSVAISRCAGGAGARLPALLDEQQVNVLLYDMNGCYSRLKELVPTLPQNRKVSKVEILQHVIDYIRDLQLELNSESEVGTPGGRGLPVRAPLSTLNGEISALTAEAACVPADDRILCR

[7] = target: T1, DNA-binding protein inhibitor ID-1 (Homo sapiens); assay: Binding affinity to ID-HLH domain by CD spectroscoy
[8] = target: T1, DNA-binding protein inhibitor ID-1 (Homo sapiens); assay: Inhibition of ID1-protein in HSMC assessed as increase in alpha-actin protein level by Western blotting
[9] = target: T1, DNA-binding protein inhibitor ID-1 (Homo sapiens); assay: Decrease in ID1-protein level in HSMC by Western blotting

Molecule: CC[C@H](C)[C@H](NC(=O)[C@H](Cc1ccc(O)cc1)NC(=O)[C@H](CC(=O)O)NC(=O)[C@@H](NC(=O)[C@@H](NC(=O)[C@H](Cc1cnc[nH]1)NC(=O)[C@H](CCC(N)=O)NC(=O)[C@H](CC(C)C)NC(=O)[C@@H](NC(=O)[C@H](CCC(=O)O)NC(=O)[C@@H](NC(=O)[C@H](CCCCN)NC(=O)C1CCC(C(NC(=O)c2ccccc2)C(=O)N[C@@H](CCCCN)C(=O)N[C@H](C(=O)N[C@@H](CCC(=O)O)C(=O)N[C@H](C(=O)N[C@@H](CC(C)C)C(=O)N[C@@H](CCC(N)=O)C(=O)N[C@@H](Cc2cnc[nH]2)C(=O)N[C@H](C(=O)N[C@H](C(=O)N[C@@H](CC(=O)O)C(=O)N[C@@H](Cc2ccc(O)cc2)C(=O)N[C@H](C(=O)N[C@@H](CCCNC(=N)N)C(=O)N[C@@H](CC(C)C)C(=O)N[C@@H](CC(=O)O)C(=O)N[C@@H](CCC(N)=O)C(N)=O)[C@@H](C)CC)[C@@H](C)CC)C(C)C)[C@@H](C)CC)C(C)C)C1)C(C)C)[C@@H](C)CC)C(C)C)[C@@H](C)CC)C(=O)N[C@@H](CCCNC(=N)N)C(=O)N[C@@H](CC(C)C)C(=O)N[C@@H](CC(=O)O)C(=O)N[C@@H](CCC(N)=O)C(N)=O (stereo partly drawn)
Activity [1]: 30%

Molecule: CC[C@H](C)[C@H](NC(=O)[C@H](CCC(=O)O)NC(=O)[C@@H](NC(=O)[C@H](CCCCN)NC(=O)[C@@H]1CC[C@H]([C@@H](NC(=O)c2ccccc2)C(=O)N[C@@H](CCCCN)C(=O)N[C@H](C(=O)N[C@@H](CCC(=O)O)C(=O)N[C@H](C(=O)N[C@@H](CC(C)C)C(=O)N[C@@H](CCC(N)=O)C(=O)N[C@@H](Cc2cnc[nH]2)C(=O)N[C@H](C(=O)N[C@H](C(=O)N[C@@H](CC(=O)O)C(=O)N[C@@H](Cc2ccc(O)cc2)C(N)=O)[C@@H](C)CC)C(C)C)[C@@H](C)CC)C(C)C)C1)C(C)C)C(=O)N[C@@H](CC(C)C)C(=O)N[C@@H](CCC(N)=O)C(=O)N[C@@H](Cc1cnc[nH]1)C(=O)N[C@H](C(=O)N[C@H](C(=O)N[C@@H](CC(=O)O)C(=O)N[C@@H](Cc1ccc(O)cc1)C(N)=O)[C@@H](C)CC)C(C)C
Activity [1]: 40%

Molecule: H-KVEILQHVIDYIRDLQ-OH
Activity [2]: inactive

Molecule: CC[C@H](C)[C@H](NC(=O)[C@H](CCC(=O)O)NC(=O)[C@@H](NC(=O)[C@H](CCCCN)NC(=O)C1CCC(C(NC(=O)c2ccccc2)C(=O)N[C@@H](CCCCN)C(=O)N[C@H](C(=O)N[C@@H](CCC(=O)O)C(=O)N[C@H](C(=O)N[C@@H](CC(C)C)C(=O)N[C@@H](CCC(N)=O)C(=O)N[C@@H](Cc2cnc[nH]2)C(=O)N[C@H](C(=O)N[C@H](C(=O)N[C@@H](CC(=O)O)C(=O)N[C@@H](Cc2ccc(O)cc2)C(N)=O)[C@@H](C)CC)C(C)C)[C@@H](C)CC)C(C)C)C1)C(C)C)C(=O)N[C@@H](CC(C)C)C(=O)N[C@@H](CCC(N)=O)C(=O)N[C@@H](Cc1cnc[nH]1)C(=O)N[C@H](C(=O)N[C@H](C(=O)N[C@@H](CC(=O)O)C(=O)N[C@@H](Cc1ccc(O)cc1)C(N)=O)[C@@H](C)CC)C(C)C (stereo partly drawn)
Activity [1]: 40%
Activity [3]: 20%

Molecule: Ac-LYDMNGCYSRLKELVPTLPQNRKVSKVEILQHVIDYIRDLQ-NH2
Activity [2]: Toxic

Activity [4]: Active
Activity [5]: Dose-dependent effect
Molecule: CC[C@H](C)[C@H](NC(=O)[C@H](CCC(=O)O)NC(=O)[C@@H](NC(=O)[C@H](CCCCN)NC(=O)[C@H]1CC[C@@H]([C@H](NC(=O)c2cccc3c2C(=O)OC32c3ccc(O)cc3Oc3cc(O)ccc32)C(=O)O[C@@H](CCCCN)C(=O)N[C@H](C(=O)N[C@@H](CCC(=O)O)C(=O)N[C@H](C(=O)N[C@@H](CC(C)C)C(=O)N[C@@H](CCC(N)=O)C(=O)N[C@@H](Cc2cnc[nH]2)C(=O)N[C@H](C(=O)N[C@H](C(=O)N[C@@H](CC(=O)O)C(=O)N[C@@H](Cc2ccc(O)cc2)C(=O)N[C@@H](CCCCN)C(=O)N[C@@H](CCCCN)C(=O)N[C@@H](CCCCN)C(N)=O)[C@@H](C)CC)C(C)C)[C@@H](C)CC)C(C)C)C1)C(C)C)C(=O)N[C@@H](CC(C)C)C(=O)N[C@@H](CCC(N)=O)C(=O)N[C@@H](Cc1cnc[nH]1)C(=O)N[C@H](C(=O)N[C@H](C(=O)N[C@@H](CC(=O)O)C(=O)N[C@@H](Cc1ccc(O)cc1)C(=O)N[C@@H](CCCCN)C(=O)N[C@@H](CCCCN)C(=O)N[C@@H](CCCCN)C(N)=O)[C@@H](C)CC)C(C)C

Activity [6]: Dose-dependent effect
K0.5 [7]: 6.6 µM
Activity [8]: Dose-dependent effect
Activity [9]: Active
Molecule: CC[C@H](C)[C@H](NC(=O)[C@H](CCC(=O)O)NC(=O)[C@@H](NC(=O)[C@H](CCCCN)NC(=O)[C@H]1CC[C@@H]([C@H](NC(=O)c2ccccc2)C(=O)N[C@@H](CCCCN)C(=O)N[C@H](C(=O)N[C@@H](CCC(=O)O)C(=O)N[C@H](C(=O)N[C@@H](CC(C)C)C(=O)N[C@@H](CCC(N)=O)C(=O)N[C@@H](Cc2cnc[nH]2)C(=O)N[C@H](C(=O)N[C@H](C(=O)N[C@@H](CC(=O)O)C(=O)N[C@@H](Cc2ccc(O)cc2)C(N)=O)[C@@H](C)CC)C(C)C)[C@@H](C)CC)C(C)C)C1)C(C)C)C(=O)N[C@@H](CC(C)C)C(=O)N[C@@H](CCC(N)=O)C(=O)N[C@@H](Cc1cnc[nH]1)C(=O)N[C@H](C(=O)N[C@H](C(=O)N[C@@H](CC(=O)O)C(=O)N[C@@H](Cc1ccc(O)cc1)C(N)=O)[C@@H](C)CC)C(C)C
Activity [1]: 40%

Source: ChEMBL document CHEMBL1154354, “Synthetic peptides containing a conserved sequence motif of the Id protein family modulate vascular smooth muscle cell phenotype” (Bioorg Med Chem Lett, 2009)
